Reference: PubChem BioAssay (NCI)
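Tested at 5 concentrations; 48 h exposure; 96-well plates; endpoints linearly interpolated, else capped at highest concentration. Abbreviation: GI50, concentration required for 50% inhibition of growth. Definition used: TGI = concentration required for complete inhibition of growth.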

Columns and labels:
Assay in all cases: inhibition of tumour cell growth, NCI panel, 48 h
NCI-H226 lung = system: NCI-H226 lung
RXF 393 renal = system: RXF 393 renal
NCI-H522 lung = system: NCI-H522 lung
SK-MEL-2 melanoma = system: SK-MEL-2 melanoma
HCT-116 colon = system: HCT-116 colon
RPMI-8226 leukemia = system: RPMI-8226 leukemia
K-562 leukemia = system: K-562 leukemia
SW-620 colon = system: SW-620 colon
T-47D breast = system: T-47D breast
SR leukemia = system: SR leukemia

Row | SMILES | GI50 (NCI-H226 lung) [µM] | TGI (NCI-H226 lung) [µM] | GI50 (RXF 393 renal) [µM] | TGI (RXF 393 renal) [µM] | GI50 (NCI-H522 lung) [µM] | TGI (NCI-H522 lung) [µM] | GI50 (SK-MEL-2 melanoma) [µM] | TGI (SK-MEL-2 melanoma) [µM] | GI50 (HCT-116 colon) [µM] | TGI (HCT-116 colon) [µM] | GI50 (RPMI-8226 leukemia) [µM] | TGI (RPMI-8226 leukemia) [µM] | GI50 (K-562 leukemia) [µM] | TGI (K-562 leukemia) [µM] | GI50 (SW-620 colon) [µM] | TGI (SW-620 colon) [µM] | GI50 (T-47D breast) [µM] | TGI (T-47D breast) [µM] | TGI (SR leukemia) [µM] | GI50 (SR leukemia) [µM]
1 | O=C1CC/C(=C\COc2ccc3ccc(=O)oc3c2)O1 | 22.4 | 83.1 | 8.41 | 31.9 | 1.76 | 5.83 | 10.9 | 36.8 | 6.25 | 22.8 | 1.07 | 17.3 | 9.89 | > 100 | 2.35 | 14.9 | 4.83 | 27.1 |  | 
2 | C[Si]12OCCCN(CCO1)CCO2 |  |  |  | > 100 |  | > 100 |  | > 100 |  | > 100 |  | > 100 |  | > 100 |  | > 100 |  |  | > 100 | 
3 | COc1ccc(-n2c3c(c4c(CN(C)C)c(O)c(C)cc42)CCc2ccccc2C3=O)cc1 | 28.3 | > 100 | 16.1 | 75.6 | 13.4 | 50.7 | 48 | > 100 | 34.4 | > 100 | 15.5 | 47 | 18.7 | 44.4 | 32.5 | > 100 | > 100 | > 100 |  | 
4 | NC1=C(Cl)C(=O)c2ccccc2C1=O |  | 18.3 |  | 18.8 |  | 18.5 |  | > 44 |  | 11.6 |  | 43.6 |  | 39 |  | 14.6 |  |  | 32.9 | 
5 | Cn1c(=O)oc2cc(C3CCC(=O)N3Cc3ccc(Cl)cc3)ccc21 (stereo not drawn) |  | > 100 |  | > 100 |  | > 100 |  | > 100 |  | > 100 |  | > 100 |  | > 100 |  | > 100 |  |  | > 100 | 
6 | Cc1cc2c(cc1Br)C1(C)CCC(C)C1(C)O2 (stereo not drawn) |  | 50 |  | 32.1 |  |  |  | 37.8 |  | 29.1 |  | 33.2 |  | 37.6 |  | > 100 |  |  | 30.5 | 
7 | N=C(N)c1ccc(-c2ccc(-c3ccc(F)cc3)o2)o1 | 2.82 | 9.71 | 1.6 | 3.4 | 1.36 | 2.9 | 1.76 | 3.39 | 1.18 | 2.59 | 2.48 | 6.1 |  |  | 0.943 | 2.38 |  |  |  | 
8 | CNC(=O)OCc1[nH]ccc2c(C)c3nc4ccc(OC)cc4c3cc12 |  | 18.7 |  | 8.72 |  | > 20.7 |  | > 48 |  | > 100 |  | 10.6 |  | > 22.5 |  | > 26.9 |  |  | 1.98 | 
9 | Cc1ccc2[nH]c(C(=O)NN3C(=O)C(C)SC34CCCCC4C)c(-c3ccccc3)c2c1 (stereo not drawn) | 17.4 | 34.2 | 0.415 | 21.1 | 2.4 | 16.7 | 12 | 26.5 | 17.4 | 35.6 | 21.4 | 64 | 18.5 | 60 | 19.8 | 53.2 | 24.6 | 78.9 |  | 
10 | O=C(O)CCCNS(=O)(=O)c1ccc2ccccc2c1 |  | > 100 |  | > 100 |  | > 100 |  | > 100 |  |  |  | > 100 |  | > 100 |  | > 100 |  |  |  | 
11 | COc1ccc2[nH]cc(-c3nc(-c4c[nH]c5ccncc45)cs3)c2c1 | 2.36 | 6.58 | 1.74 | 3.33 | 1.81 | 3.65 | 2.05 | 3.91 | 1.77 | 3.33 | 2.08 | 4.76 | 1.72 | 4.7 | 1.93 | 3.84 |  |  |  | 
12 | CC(=O)O[C@H]1CC[C@@]2(C)C(=CC[C@@H]3C2CC[C@]2(C)Nc4[nH]ncc4CC32)C1 (stereo partly drawn) |  | > 100 |  | > 100 |  |  |  | 72.7 |  | 29.9 |  | 65.9 |  | 52.8 |  | > 100 |  |  |  | 
13 | NC(N)=N/N=C/c1c(-c2ccc(Cl)c([N+](=O)[O-])c2)nc2ccccn12 |  |  |  |  |  |  |  |  | 0.362 | 1.55 |  |  |  |  | 1.46 | 3.16 | 2.08 | 5.01 |  | 
14 | CC(=O)OC12CC(C)C3(O)C4C=C(C)C(=O)[C@@]4(O)CC(CO)=C[C@H]3C1C2(C)C (stereo partly drawn) | > 1000 | > 1000 |  |  | > 1000 | > 1000 | > 1000 | > 1000 | > 1000 | > 1000 | > 1000 | > 1000 |  |  |  |  |  |  | > 1000 | > 1000
15 | CN(CCN(C)C(=O)CCOS(C)(=O)=O)C(=O)CCOS(C)(=O)=O |  | > 100 |  |  |  | > 100 |  | > 100 |  | > 100 |  | > 100 |  | > 100 |  | > 100 |  |  | > 100 | 
16 | CCOC(=O)c1cnc2cc3cccccc3n2c1=O |  | > 100 |  | > 100 |  |  |  | > 100 |  | > 100 |  | > 100 |  | > 100 |  | > 100 |  |  | > 100 | 

Row | SMILES | GI50 (NCI-H226 lung) [µM] | TGI (NCI-H226 lung) [µM] | GI50 (RXF 393 renal) [µM] | TGI (RXF 393 renal) [µM] | GI50 (NCI-H522 lung) [µM] | TGI (NCI-H522 lung) [µM] | GI50 (SK-MEL-2 melanoma) [µM] | TGI (SK-MEL-2 melanoma) [µM] | GI50 (HCT-116 colon) [µM] | TGI (HCT-116 colon) [µM] | GI50 (RPMI-8226 leukemia) [µM] | TGI (RPMI-8226 leukemia) [µM] | GI50 (K-562 leukemia) [µM] | TGI (K-562 leukemia) [µM] | GI50 (SW-620 colon) [µM] | TGI (SW-620 colon) [µM] | GI50 (T-47D breast) [µM] | TGI (T-47D breast) [µM] | TGI (SR leukemia) [µM] | GI50 (SR leukemia) [µM]
17 | Clc1cc(Cl)cc(Nc2nc3ccccc3nc2-c2cccs2)c1 |  | > 100 |  | 39.9 |  |  |  | > 100 |  | 72 |  | > 100 |  |  |  | > 100 |  |  | > 100 | 
18 | COc1ccc2c(c1)CCCC1C3=NCCC3(C)CSC21 (stereo not drawn) |  |  |  | > 100 |  | > 100 |  |  |  | > 100 |  | > 100 |  | > 100 |  | > 100 |  |  |  | 
19 | O=C1OCC2=C1C(c1cccc(C(F)(F)F)c1)c1cc3c(cc1N2CCO)CCC3 (stereo not drawn) | 1 | 9.43 | 0.145 | 8.38 | 0.137 | 1.35 | 0.34 | 10.6 | 0.175 | 6.55 | 0.239 | 12.8 | 0.174 | 28.1 | 0.189 | 9.16 |  |  |  | 
20 | CCCCCCCCCCCCCCCCn1cc[n+](Cc2ccccc2)c1C |  |  | 0.0122 | 0.341 | 0.451 | 1.88 | 1.52 | 3.26 |  |  | 0.104 | 0.444 |  |  |  |  | 0.207 | 0.951 |  | 
21 | O=CN1CCN(C=S)CC1 |  | > 100 |  | > 100 |  | > 100 |  |  |  | > 100 |  | > 100 |  | > 100 |  | > 100 |  |  | > 100 | 
22 | NC(=O)c1c2c(cc3c(=O)c4ccccc4[nH]c13)CCCC2 |  | > 100 |  | > 100 |  | > 100 |  | > 100 |  | > 100 |  | > 78.7 |  | > 97.3 |  | > 100 |  |  | > 100 | 
23 | COc1cc2c3c(n(CCCNCCNCCCN)c(=O)c2cc1OC)-c1cc2c(cc1C3=O)OCO2 | 2.06 | 7.06 | 13 | 93.1 | 0.575 | 2.86 | 2.59 | 10 | 1.29 | 2.56 |  |  | 3.43 | > 100 | 2.03 | 10.7 | 2.72 | 17.3 |  | 
24 | CCC[CH2][Sn]1([CH2]CCC)[O]C(=O)CN=Cc2ccccc2[O]1 |  |  | 0.144 | 0.306 | 0.0349 | 0.173 | 0.22 | 0.555 | 0.71 | 2.09 | 0.187 | 0.607 | 0.192 | 1.27 | 0.175 | 0.434 |  |  |  | 
25 | CC1CC2(CCC1OCc1ccccc1)OCCO2 (stereo not drawn) |  |  |  | > 100 |  | > 100 |  | > 100 |  | > 100 |  | > 100 |  | > 100 |  | > 100 |  |  |  | 
26 | COc1ccc(-c2cc(-c3nnc(SCC(=O)Nc4ccc(C(C)=O)cc4)o3)c3ccccc3n2)cc1 | 43.6 | > 100 | 18.1 | 57.5 | 30.2 | > 100 | 30.4 | > 100 | 2.9 | > 100 | > 100 | > 100 | > 100 | > 100 | > 100 | > 100 | > 100 | > 100 |  | 
27 | CC1=CC2CC(C)C1(C)CCc1ccoc12 (stereo not drawn) |  |  |  | > 100 |  |  |  | > 100 |  | > 100 |  | > 100 |  | > 100 |  | > 100 |  |  | > 100 | 
28 | COC(=O)C1=Cc2c(cc(OC)c(OC)c2OC)[C@H](c2ccc(OC)c(OC)c2OC)C1C(=O)OC (stereo partly drawn) |  | > 100 |  | > 100 |  | > 100 |  |  |  | > 100 |  | > 100 |  | > 100 |  | > 100 |  |  | > 100 | 
29 | Cc1c(O)c(=O)ccn1CCO |  | > 100 |  | > 100 |  | > 100 |  | > 100 |  | > 100 |  | > 100 |  | > 100 |  | > 100 |  |  | > 100 | 
30 | COc1ccccc1NC(=O)C1=C(C)NC(C)=C(C(=O)Nc2ccccc2OC)C1c1cccc2c1OCO2 |  | > 100 |  |  |  |  |  | > 100 |  | > 100 |  | > 100 |  | > 100 |  | > 100 |  |  | > 100 | 
31 | CCOC(=O)C(=O)Nc1ccc(Cl)c(C(F)(F)F)c1 |  | > 100 |  | > 100 |  | > 100 |  | > 100 |  | > 100 |  | > 100 |  | > 100 |  | > 100 |  |  | > 100 | 
32 | CC1(C)N[P+]2(Nc3ccccc3O2)OC1=O (stereo not drawn) |  | > 100 |  | > 100 |  |  |  |  |  | > 100 |  | > 100 |  | > 100 |  | > 100 |  | > 100 |  | 
